25 molecules from ChEMBL document CHEMBL4118081, “Design, synthesis, and biological evaluation of optimized phthalazine derivatives as hedgehog signaling pathway inhibitors” (Eur J Med Chem, 2017) can be followed below.

Series [1] in a line: Inhibition of hedgehog signaling pathway in mouse NIH/3T3 Light2 cells by Gli-luciferase reporter gene assay. The following applies: NIH3T3. The series is classed as cell-based. (In general: A reporter such as luciferase makes a cellular process visible.)
Series [2] relates to Medulloblastoma cell. Nature of the series: Antitumor activity against Ptch+/- and p53-/- mouse medulloblastoma cells allografted in athymic nude mouse assessed as tumor growth inhibition at 100 mg/kg, po qd administered daily via gavage for 13 days. The series is classed as functional, organism-based.
The subject of series [3] is Medulloblastoma cell. Put plainly: Antiproliferative activity against Ptch+/- and p53-/- mouse medulloblastoma cells after 36 hrs by Brdu incorporation assay. The series is classed as functional, cell-based.
In series [4] the test system is Medulloblastoma cell. Put plainly: Antitumor activity against Ptch+/- and p53-/- mouse medulloblastoma cells allografted in athymic nude mouse assessed as tumor growth inhibition at 50 mg/kg, po bid administered daily via gavage for 13 days. The format is functional, organism-based.
The next series is filed under the species Mus musculus. Nature of the series: Potency index, ratio of vismodegib IC50 to compound IC50 for hedgehog signaling pathway in mouse NIH/3T3 Light2 cells. The format is cell-based.
A short description of series [5]: AUC (0 to infinity) in Sprague-Dawley rat at 10 mg/kg, po administered as single dose. The following applies: in vivo. The series is classed as ADME, organism-based. Further details: dose 10 mg/kg, time infinity, route oral.
Series [6] is described as follows: Volume of distribution at steady state in Sprague-Dawley rat at 2 mg/kg, iv administered as single dose. The series is classed as ADME, organism-based. The note with it: in vivo, read-out: Vdss.
A short description of series [7]: Half life in Sprague-Dawley rat at 2 mg/kg, iv administered as single dose. The format is ADME, organism-based. The note with it: in vivo.
Series [8] is described as follows: Oral bioavailability in Sprague-Dawley rat at 10 mg/kg administered as single dose. The format is ADME, organism-based. The note with it: in vivo.
A short description of series [9]: AUC (0 to infinity) in Sprague-Dawley rat at 2 mg/kg, iv administered as single dose. The series is classed as ADME, organism-based. The arrangement: dose 2 mg/kg, time infinity, route intravenous. The following applies: in vivo.
A short description of series [10]: Tmax in Sprague-Dawley rat at 10 mg/kg, po administered as single dose. The format is ADME, organism-based. The following applies: in vivo.
Series [11] in a line: Clearance in Sprague-Dawley rat at 2 mg/kg, iv administered as single dose. The series is classed as ADME, organism-based. The following applies: in vivo.
The nature of series [12]: Cmax in Sprague-Dawley rat at 10 mg/kg, po administered as single dose. The arrangement: dose 10 mg/kg, route oral. The note with it: in vivo. The series is classed as ADME, organism-based.

Active and inactive are the calls of the source.

As usually defined, the IC50 is the concentration that inhibits the measured activity by half. Read a low IC50 as greater potency. Usually AUC(0-inf) stands for total exposure, with the tail of the curve extrapolated. A higher AUC(0-inf) goes with high exposure. Broadly, the half-life is the time needed for the level to fall by half in the phase considered. Higher therefore signals slow loss. For orientation: bioavailability means the share of a dose that reaches the circulation, judged against a reference dose that is usually intravenous. A lower bioavailability goes with poor availability. One may read the Tmax as the time from dosing to the highest level. Usually clearance stands for the rate of elimination divided by the concentration. Read a high clearance as efficient removal. For orientation: Cmax means the highest concentration seen after dosing.

Take `O=C(NC1CCN(c2nnc(-c3ccc(Cl)cc3)c3ccccc23)C1)c1ccc(F)cc1C(F)(F)F` (racemic): in series [1], the IC50 amounted to 0.0109 µM.
`O=C(N[C@@H]1CCN(c2nnc(-c3ccc(CO)cc3)c3ccccc23)C1)c1ccc(F)cc1C(F)(F)F`: the TGI result with Medulloblastoma cell [2] and in the series with Medulloblastoma cell [4] was “Active” each time. The IC50 is 0.0246 µM in the series on Medulloblastoma cell [3] and 0.00017 µM in series [1]. In the series listed under Mus musculus, the Ratio IC50 is 23. The figures for the AUC(0-inf) in series [5] and in series [9] were 0.33 µM·h and 0.88 µM·h, respectively. For the same molecule, the Vd in series [6] stood at 1.47 L/kg. For the same molecule, the half-life in series [7] was 19.2 min. The molecule further returned a bioavailability in series [8] of 7.4%. Moreover, in series [10], the Tmax was 15 min. This molecule displayed a clearance in series [11] of 74.7 mL/min/kg. In series [12], this molecule had a maximum concentration (Cmax) of 480 nM.
On to `O=C(N[C@H]1CCN(c2nnc(-c3ccc(CO)cc3)c3ccccc23)C1)c1ccc(F)cc1C(F)(F)F`, for which, in series [1], the IC50 was over 0.1 µM.
On the same count and under the same terms, the figure for `CN(C(=O)c1ccc(F)cc1C(F)(F)F)C1CCN(c2nnc(-c3ccc(CO)cc3)c3ccccc23)C1` (racemic) is 0.00136 µM.
`O=C(NC1CCN(c2nnc(NCc3ccccc3)c3ccccc23)C1)c1ccc(F)cc1C(F)(F)F` (racemic) returned an IC50 in series [1] of over 0.1 µM.
For the molecule `Cn1nccc1Nc1nnc(N2CCC(NC(=O)c3ccc(F)cc3C(F)(F)F)C2)c2ccccc12` (racemic), the IC50 in series [1] is over 0.1 µM.
Consider `Cc1ccc(-c2nnc(N3CC[C@@H](NC(=O)c4ccc(F)cc4C(F)(F)F)C3)c3ccccc23)cc1`, for which the IC50 amounted to 0.0201 µM with Medulloblastoma cell [3] and 0.00116 µM in series [1].
`O=C(NC1CCN(c2nnc(-c3ccccc3)c3ccccc23)C1)c1ccc(F)cc1C(F)(F)F` (racemic) displayed an IC50 in series [1] of 0.00343 µM. That is a single-digit nanomolar value.
Molecule `CN(C(=O)c1ccc(F)cc1C(F)(F)F)C1CCCN(c2nnc(-c3ccnn3C)c3ccccc23)C1` (racemic) returned an IC50 in series [1] of over 1 µM.
On the same count and under the same terms, under `O=C(NC1CCN(c2nnc(-c3ccc(CO)cc3)c3ccccc23)C1)c1ccc(F)cc1C(F)(F)F` (racemic) stands 0.00095 µM.
On the same count and under the same terms, the figure for `Cn1nccc1-c1nnc(N2CCC(NC(=O)c3ccc(F)cc3C(F)(F)F)C2)c2ccccc12` (racemic) is 0.00475 µM; for `Cn1cc(-c2nnc(N3CCC(NC(=O)c4ccc(F)cc4C(F)(F)F)C3)c3ccccc23)cn1` (racemic) it is over 0.1 µM.
The same measure, in the same setting: under `Cc1ccc(-c2nnc(N3CC[C@H](NC(=O)c4ccc(F)cc4C(F)(F)F)C3)c3ccccc23)cc1` stands over 0.1 µM.
As to `Cn1nccc1-c1nnc(N2CC3(CN(C(=O)c4ccc(F)cc4C(F)(F)F)C3)C2)c2ccccc12`, the IC50 in series [1] was found to be 0.442 µM.
The same measure, in the same setting: under `Cn1nccc1-c1nnc(N2CCCC(NC(=O)c3ccc(F)cc3C(F)(F)F)C2)c2ccccc12` (racemic) stands over 1 µM; under `Cc1ccc(-c2nnc(N3CCC(NC(=O)c4ccc(F)cc4C(F)(F)F)C3)c3ccccc23)cc1` (racemic), 0.00088 µM.
In series [1], `Cn1nccc1-c1nnc(NC2CCN(C(=O)c3ccc(F)cc3C(F)(F)F)C2)c2ccccc12` (racemic) registered an IC50 of over 1 µM.
As for `CS(=O)(=O)c1ccc(C(=O)Nc2ccc(Cl)c(-c3ccccn3)c2)c(Cl)c1` [VISMODEGIB], the results for the IC50 (in the series with Medulloblastoma cell [3]; in series [1]) were 0.0304 µM and 0.0023 µM, respectively.
`O=C(NC1CCN(c2nnc(-c3ccncc3)c3ccccc23)C1)c1ccc(F)cc1C(F)(F)F` (racemic) returned an IC50 in [1] of 0.0107 µM.
With `CN(C(=O)c1ccc(F)cc1C(F)(F)F)C1CCN(c2nnc(-c3ccnn3C)c3ccccc23)CC1` [TALADEGIB], the IC50 in the series with Medulloblastoma cell [3] turned out to be 0.0435 µM; in series [1], 0.0063 µM. The TGI result in the series on Medulloblastoma cell [4] is “Active”.
`O=C(NC1CCN(c2nnc(-c3ccccc3Cl)c3ccccc23)C1)c1ccc(F)cc1C(F)(F)F` (racemic) returned an IC50 in [1] of 0.00651 µM.
On the same count and under the same terms, the figure for `Cc1ccc(-c2nnc(N3CCC(N(C)C(=O)c4ccc(F)cc4C(F)(F)F)C3)c3ccccc23)cc1` (racemic) is 0.00293 µM.
On the same count and under the same terms, under `N#Cc1ccc(-c2nnc(N3CCC(NC(=O)c4ccc(F)cc4C(F)(F)F)C3)c3ccccc23)cc1` (racemic) stands 0.014 µM; under `CC(=O)c1ccc(-c2nnc(N3CCC(NC(=O)c4ccc(F)cc4C(F)(F)F)C3)c3ccccc23)cc1` (racemic), 0.0086 µM; under `Cn1nccc1-c1nnc(N2CC(NC(=O)c3ccc(F)cc3C(F)(F)F)C2)c2ccccc12`, over 1 µM.
